Values quoted from earlier work as cited in paper PMC9775153, “Portability of a Small-Molecule Binding Site between Disordered Proteins” (Biomolecules, 2022).

Key:
Max = test system: Max; parameters: method as in PMID 13679853; settings: cited from earlier work
Myc-Max dimerization = test system: Myc-Max dimerization; parameters: method as in PMID 13679853; settings: cited from earlier work
Myc402–412 peptide = target: T1, Myc402–412 peptide (Homo sapiens, UniProt P01106); parameters: method as in PMID 19022175; settings: 20 µM peptide; cited from earlier work
T1 construct: purchased Genscript; host or cells: solid phase peptide synthesis

In the case of `CCc1ccc(/C=C2/SC(=S)NC2=O)cc1` [1RH], the “interaction with Max” value (Max) is given as “not to interact”, the “effect on Myc-Max dimerization” value (Myc-Max dimerization) is given as “disrupted Myc-Max dimerization” and the “effect on peptide secondary structure (CD)” value (Myc402–412 peptide) is given as “induced a substantial shift in the peptide’s secondary structure”.
